What was measured:
[1] = test system: MDA-MB-453 cell line (FGFR4-Y367C); assay: Cancer cell line cell viability assay (Cell Titer-Glo), 120 hr; assay type: cell-based; conditions: Homo sapiens
Method in brief: (§1)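 5,000-20,000 cells/well o/n; cpd 9-pt 4x dil from 3 μM, n=3; 37° C/5% CO2; CTG 2.0 lumi; % DMSO ctrl; 4PL IC50.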

[2] = test system: KATO-III cell line (FGFR2 amplification); assay: Cancer cell line cell viability assay (Cell Titer-Glo), 72 hr; assay type: cell-based; conditions: Homo sapiens, KATO III
Method in brief: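 Following overnight attachment, each line receives compound in triplicate across nine 4-fold dilutions starting at 3 μM, with DMSO backfill for equal solvent. Luminescence after Cell Titer-Glo 2.0 addition gives percent viability versus DMSO control, fitted by 4-parameter logistic for IC50.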

[3] = test system: RT112/84 cell line (FGFR3-fusion); assay: as above; assay type: cell-based; conditions: Homo sapiens, RT112/84, RT112/84 cell line (FGFR3-fusion)
Method in brief: as §1

[4] = test system: KG-1 cell line (FGFR 1-fusion); assay: as above; assay type: cell-based; conditions: Homo sapiens, KG-1, KG-1 cell line (FGFR1-fusion)
Method in brief: as §1

[5] = biological target: T1, FGFR4 (Homo sapiens, UniProt P22455); assay: Kinase binding assay (kinase-tagged T7 phage, affinity beads, qPCR), Kd; conditions: read-out: FGFR4 (Kd nM)
T1 construct: made in house; host or cells: E. coli (BL21-derived), T7 phage
Method in brief: (§2)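 Readout was qPCR of kinase eluted from ligand-coated affinity beads after competition with test compound. Kinases were expressed as T7 phage fusions in E. coli. Binding constants were derived by non-linear least-squares Hill fitting, Hill slope −1.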

[6] = biological target: T2, FGFR3 (V555M) (Homo sapiens, UniProt P22607, V555M); assay: as above; conditions: V555M mutant; read-out: FGFR3 (V555M) (Kd nM)
T2 construct: made in house; host or cells: E. coli (BL21-derived), T7 phage
Method in brief: as §2

[7] = biological target: T3, FGFR1 (Homo sapiens, UniProt P11362); assay: as above; conditions: read-out: FGFR1 (Kd nM)
T3 construct: made in house; host or cells: E. coli (BL21-derived), T7 phage
Method in brief: as §2

[8] = biological target: T4, FGFR2 (Homo sapiens, UniProt P21802); assay: as above; conditions: read-out: FGFR2 (Kd nM)
T4 construct: made in house; host or cells: E. coli (BL21-derived), T7 phage
Method in brief: as §2

[9] = biological target: T5, FGFR3 (Homo sapiens, UniProt P22607); assay: as above; conditions: read-out: FGFR3 (Kd nM)
T5 construct: made in house; host or cells: E. coli (BL21-derived), T7 phage
Method in brief: as §2

T1 sequence (P22455 22-802): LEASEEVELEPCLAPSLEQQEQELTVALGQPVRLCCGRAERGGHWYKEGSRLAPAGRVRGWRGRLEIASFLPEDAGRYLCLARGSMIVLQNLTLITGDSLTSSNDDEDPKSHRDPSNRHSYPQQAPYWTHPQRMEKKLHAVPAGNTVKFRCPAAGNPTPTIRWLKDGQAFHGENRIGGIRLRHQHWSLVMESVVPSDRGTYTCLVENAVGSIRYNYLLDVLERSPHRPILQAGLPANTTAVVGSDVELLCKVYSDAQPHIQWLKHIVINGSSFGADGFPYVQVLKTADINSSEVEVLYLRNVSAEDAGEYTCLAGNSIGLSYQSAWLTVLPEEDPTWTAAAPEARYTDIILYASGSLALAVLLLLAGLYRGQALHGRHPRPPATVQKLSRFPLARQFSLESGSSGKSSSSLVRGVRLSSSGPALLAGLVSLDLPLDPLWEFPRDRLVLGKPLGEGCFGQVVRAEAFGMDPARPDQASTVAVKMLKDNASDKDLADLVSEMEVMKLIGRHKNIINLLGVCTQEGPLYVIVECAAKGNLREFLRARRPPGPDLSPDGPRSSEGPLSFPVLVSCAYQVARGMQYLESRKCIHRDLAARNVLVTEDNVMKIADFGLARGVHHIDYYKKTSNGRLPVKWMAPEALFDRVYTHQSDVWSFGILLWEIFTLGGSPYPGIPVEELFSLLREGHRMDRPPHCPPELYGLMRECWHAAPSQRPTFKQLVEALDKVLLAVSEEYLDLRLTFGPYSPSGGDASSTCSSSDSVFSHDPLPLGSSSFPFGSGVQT
T2 sequence (P22607 23-806 V555M): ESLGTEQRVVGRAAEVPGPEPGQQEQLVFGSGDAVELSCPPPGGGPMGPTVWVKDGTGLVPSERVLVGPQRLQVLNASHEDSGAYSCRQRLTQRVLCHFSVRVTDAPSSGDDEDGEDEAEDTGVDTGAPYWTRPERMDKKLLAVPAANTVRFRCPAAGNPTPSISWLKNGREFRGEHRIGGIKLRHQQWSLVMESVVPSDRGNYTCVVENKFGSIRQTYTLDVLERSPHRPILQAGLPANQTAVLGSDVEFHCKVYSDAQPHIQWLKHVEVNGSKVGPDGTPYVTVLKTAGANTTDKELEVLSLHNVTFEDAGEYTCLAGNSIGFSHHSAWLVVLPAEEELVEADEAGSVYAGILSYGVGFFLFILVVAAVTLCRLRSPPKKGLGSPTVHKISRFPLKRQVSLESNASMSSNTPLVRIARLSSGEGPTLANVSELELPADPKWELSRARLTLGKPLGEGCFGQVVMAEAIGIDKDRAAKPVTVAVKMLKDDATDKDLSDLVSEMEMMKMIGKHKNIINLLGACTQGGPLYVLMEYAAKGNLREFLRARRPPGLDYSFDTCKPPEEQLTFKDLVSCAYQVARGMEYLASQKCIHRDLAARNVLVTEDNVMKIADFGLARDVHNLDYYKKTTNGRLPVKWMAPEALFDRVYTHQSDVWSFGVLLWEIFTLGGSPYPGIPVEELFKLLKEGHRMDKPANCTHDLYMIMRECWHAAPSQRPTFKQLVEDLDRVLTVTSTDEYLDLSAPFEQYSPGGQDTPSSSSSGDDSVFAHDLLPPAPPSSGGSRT
T4 sequence (P21802 22-821): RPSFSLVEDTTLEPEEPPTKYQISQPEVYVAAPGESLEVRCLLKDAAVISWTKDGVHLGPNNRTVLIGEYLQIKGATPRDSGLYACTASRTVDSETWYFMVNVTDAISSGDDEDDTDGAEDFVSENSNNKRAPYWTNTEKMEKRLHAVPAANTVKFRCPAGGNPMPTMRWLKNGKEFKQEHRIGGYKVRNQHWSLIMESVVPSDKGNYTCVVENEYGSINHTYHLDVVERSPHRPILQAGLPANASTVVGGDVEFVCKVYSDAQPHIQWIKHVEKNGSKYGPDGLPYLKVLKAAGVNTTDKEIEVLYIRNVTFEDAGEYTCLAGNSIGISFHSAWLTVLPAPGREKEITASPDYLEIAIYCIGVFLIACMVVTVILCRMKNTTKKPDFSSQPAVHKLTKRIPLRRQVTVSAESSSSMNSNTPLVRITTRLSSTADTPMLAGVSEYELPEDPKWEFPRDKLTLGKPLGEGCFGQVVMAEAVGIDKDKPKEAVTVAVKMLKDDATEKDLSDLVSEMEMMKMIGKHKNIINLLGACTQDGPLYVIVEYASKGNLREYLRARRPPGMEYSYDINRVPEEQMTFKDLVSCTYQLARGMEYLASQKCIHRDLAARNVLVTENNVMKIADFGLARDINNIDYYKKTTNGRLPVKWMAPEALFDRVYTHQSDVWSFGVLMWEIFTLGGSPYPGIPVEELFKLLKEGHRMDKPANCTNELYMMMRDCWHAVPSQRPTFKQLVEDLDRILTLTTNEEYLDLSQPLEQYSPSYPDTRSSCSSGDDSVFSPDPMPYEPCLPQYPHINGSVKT
T3 sequence (P11362 22-822): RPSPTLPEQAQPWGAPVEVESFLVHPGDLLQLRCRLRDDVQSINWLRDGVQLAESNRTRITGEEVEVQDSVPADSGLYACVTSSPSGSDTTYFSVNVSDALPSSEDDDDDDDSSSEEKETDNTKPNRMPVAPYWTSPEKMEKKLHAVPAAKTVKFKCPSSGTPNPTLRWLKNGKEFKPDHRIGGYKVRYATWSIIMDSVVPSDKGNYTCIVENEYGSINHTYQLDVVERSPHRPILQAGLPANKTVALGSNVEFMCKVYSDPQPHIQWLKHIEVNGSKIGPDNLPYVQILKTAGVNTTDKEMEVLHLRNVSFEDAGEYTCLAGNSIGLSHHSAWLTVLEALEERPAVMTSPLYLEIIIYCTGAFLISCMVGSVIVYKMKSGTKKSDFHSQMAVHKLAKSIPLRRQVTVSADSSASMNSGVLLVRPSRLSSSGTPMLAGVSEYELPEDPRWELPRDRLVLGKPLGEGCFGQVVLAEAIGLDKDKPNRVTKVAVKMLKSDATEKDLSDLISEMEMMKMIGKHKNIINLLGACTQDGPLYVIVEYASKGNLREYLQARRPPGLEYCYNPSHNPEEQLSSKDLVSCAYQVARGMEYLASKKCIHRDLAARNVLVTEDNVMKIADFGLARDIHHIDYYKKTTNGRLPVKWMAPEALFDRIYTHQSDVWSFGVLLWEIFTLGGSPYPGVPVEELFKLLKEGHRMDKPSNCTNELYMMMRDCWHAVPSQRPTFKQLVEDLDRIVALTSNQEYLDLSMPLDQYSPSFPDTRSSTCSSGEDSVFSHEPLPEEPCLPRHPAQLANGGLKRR
T5 sequence (P22607 23-806): as the sequence (P22607 23-806 V555M) above, with M533V counted along it

| Compound | IC50 [1] [µM] | IC50 [2] [µM] | IC50 [3] [µM] | IC50 [4] [µM] | Kd [5] [nM] | Kd [6] [nM] | Kd [7] [nM] | Kd [8] [nM] | Kd [9] [nM] |
| --- | --- | --- | --- | --- | --- | --- | --- | --- | --- |
| C[C@H](Oc1ccc2[nH]nc(-c3cnc(N4CC(C)(CS(C)(=O)=O)C4)c(F)c3)c2c1)c1c(Cl)cncc1Cl [Example 200, (S)-5-(1-(3,5-dichloropyridin-4-yl)ethoxy)-3-(5-fluoro-6-(3-methyl-3-((methyl-sulfonyl)meth-yl)azetidin-1-yl)pyridin-3-yl)-1H-indazole] | > 1 | > 1 | > 1 | > 1 | 50 to 300 | 1 to 50 | 300 to 1000 | > 1000 | 50 to 300 |
| C[C@@H](Oc1ccc2[nH]nc(-c3cnc(N4CC(C)(NCC5CC5)C4)c(F)c3)c2c1)c1c(Cl)cncc1Cl [Example 106, (R)-N-(cyclopropylmethyl)-1-(5-(5-(1-(3,5-dichloropyridin-4-yl)ethoxy)-1H-indazol-3-yl)-3-fluoropyridin-2-yl)-3-methylazetidin-3-amine] | 0.05 to 0.2 | 0.05 to 0.2 | 0.0001 to 0.05 | 0.05 to 0.2 | 1 to 50 | 1 to 50 | 1 to 50 | 1 to 50 | 1 to 50 |
| CNC1(C)CN(c2ccc(-c3n[nH]c4ccc(O[C@H](C)c5c(Cl)cnc(C)c5Cl)cc34)cn2)C1 [Example 76, 1-[5-[5-[(1R)-1-(3,5-dichloro-2-methyl-4-pyridyl)ethoxy]-1H-indazol-3-yl]-2-pyridyl]-N,3-dimethyl-azetidin-3-amine] | 0.2 to 1 | 0.05 to 0.2 | 0.0001 to 0.05 | 0.05 to 0.2 | 1 to 50 | 1 to 50 | 1 to 50 | 1 to 50 | 1 to 50 |
| Cc1ncc(Cl)c([C@@H](C)Oc2ccc3[nH]nc(-c4ccc(N5CC(C)(N6CCOCC6)C5)nc4)c3c2)c1Cl [Example 77, 4-[1-[5-[5-[(1R)-1-(3,5-dichloro-2-methyl-4-pyridyl)ethoxy]-1H-indazol-3-yl]-2-pyridyl]-3-methyl-azetidin-3-yl]morpholine] | 0.2 to 1 | 0.05 to 0.2 | 0.0001 to 0.05 | 0.2 to 1 | 1 to 50 | 1 to 50 | 1 to 50 | 1 to 50 | 1 to 50 |

Next, values leading:

| IC50 [1] [µM] | IC50 [2] [µM] | IC50 [3] [µM] | IC50 [4] [µM] | Kd [5] [nM] | Kd [6] [nM] | Kd [7] [nM] | Kd [8] [nM] | Kd [9] [nM] | Compound |
| --- | --- | --- | --- | --- | --- | --- | --- | --- | --- |
| 0.05 to 0.2 | 0.0001 to 0.05 | 0.0001 to 0.05 | 0.05 to 0.2 | 1 to 50 | 1 to 50 | 1 to 50 | 1 to 50 | 1 to 50 | C[C@@H](Oc1ccc2[nH]nc(-c3cnc(N4CC(C)(NC(=O)CN(C)C)C4)c(F)c3)c2c1)c1c(Cl)cncc1Cl (stereo in doubt) [Example 156, N-(1-(5-(5-(1-(3,5-dichloropyridin-4-yl)ethoxy)-1H-indazol-3-yl)-3-fluoropyridin-2-yl)-3-methylazetidin-3-yl)-2-(dimethylamino)-acetamide] |
| 0.05 to 0.2 | 0.0001 to 0.05 | 0.0001 to 0.05 | 0.05 to 0.2 | 1 to 50 | 1 to 50 | 1 to 50 | 1 to 50 | 1 to 50 | C[C@@H](Oc1ccc2[nH]nc(-c3ccc(N4CC(C)(N5C[C@@H]6C[C@H]5CO6)C4)nc3)c2c1)c1c(Cl)cncc1Cl [Example 229, (1S,4S)-5-(1-(5-(5-((R)-1-(3,5-dichloropyridin-4-yl)ethoxy)-1H-indazol-3-yl)pyridin-2-yl)-3-methylazetidin-3-yl)-2-oxa-5-aza-bicyclo[2.2.1]hep-tane] |
| 0.0001 to 0.05 | 0.0001 to 0.05 | 0.0001 to 0.05 | 0.2 to 1 | 1 to 50 | 1 to 50 | 1 to 50 | 1 to 50 | 1 to 50 | C[C@@H](Oc1ccc2[nH]nc(-c3cnc(N4CC(C)(NCP(C)(C)=O)C4)c(F)c3)c2c1)c1c(Cl)cncc1Cl [Example 182, 1-[5-[5-[(1R)-1-(3,5-dichloro-4-pyridyl)ethoxy]-1H-indazol-3-yl]-3-fluoro-2-pyridyl]-N-(dimethylphosphorylmethyl)-3-methyl-azetidin-3-amine] |
